row,melting point,Compound
1,> 230 °C,COc1cc2cc(CO)c(CO)c(-c3ccnc(-n4c(=O)ccc5ccccc54)c3)c2cc1OC
2,52 to 53 °C,CCOC(=O)CC(=O)c1ccc(Br)c(OC)c1F
3,135 °C,Cc1nn(C)c(C#N)c1NC=O
4,171 °C,COc1ccc(CN(C)CCCCc2ccc(NC(=O)c3cccc4c(=O)cc(-c5ccccc5)[nH]c34)cc2)cc1OC
5,53 to 54 °C,Cc1nnc(Sc2c(C)cccc2C)o1
6,110 to 112 °C,Nc1ccc(Nc2ccccc2[N+](=O)[O-])cc1
7,165 to 166 °C,Cc1nn(C)c(C)c1NC(=S)n1ccc2cc(Cl)ccc21
8,> 250 °C,NCC1COc2ccc3[nH]c(=O)oc3c2O1 (configuration not stated)
9,138 to 140 °C,Nc1nc(NCC(O)(c2ccccc2)c2ccccc2)c2ncn(C3OC(CO)C(O)C3O)c2n1 (configuration not stated)
10,91 to 95 °C,ClCc1ccc(OCCC(c2ccccc2)(c2ccccc2)c2ccccc2)cc1
11,235 to 237 °C,C=CC(=O)NC1Cc2ccc(-c3ccc(=O)[nH]n3)cc2C1 (configuration not stated)
12,148 to 151 °C,CCOC(=O)C(=O)Nc1cc(Cl)c(Cl)c(Cl)c1
13,73 to 74 °C,CCOCOCCCOn1cnc2cnc(N)nc21
14,165 to 166 °C,CCOP(=O)(/C=C/c1cn(-c2ccccc2)nc1OCc1ccc(OCc2nc(-c3ccc(C(=O)O)s3)oc2C)c(OC)c1)OCC
15,97 to 98.5 °C,CCN(c1nc(C)cc(C(=O)c2nccs2)n1)c1ccc(C(C)C)cc1Br
16,208 to 209 °C,CC(C)(N)c1ccc(-c2nc(Nc3ccc(-n4cncn4)cc3)ncc2C#N)cc1
17,119 °C,CCCCOc1cc(/C=C(\OCC)C(=O)O)ccc1OCCc1ccc(OCC)c(F)c1
18,187 to 188 °C,Cc1cc(-c2c(-c3ccc(S(N)(=O)=O)cc3)cnn(-c3cccc(Cl)c3)c2=O)ccc1F
19,255 to 256 °C,Cc1nc(N2CCCC(CO)C2)c2nc(-c3ccccc3)cc-2[nH]1 (configuration not stated)
20,96 to 100 °C,COC(=O)CCC#Cc1nc(Cl)ccc1N
21,210 to 213 °C,O=C(O)c1ccc(C(c2ccccc2)(c2ccc(C(=O)O)c(C(=O)O)c2)C(F)(F)F)cc1C(=O)O
22,152 to 154 °C,CCOc1cc(NCCSCc2[nH]cnc2C)nc2ccccc12
23,150 °C,COc1ccc(S(N)(=O)=O)cc1C(=O)NC1CCN(CC2CC2)C1 (configuration not stated)
24,74 to 76 °C,COC(=O)Cc1ccc2c(c1)C(=O)c1ccccc1CO2

row,melting point,Compound
1,171 to 173 °C,O=C(O)c1cccc2c1CCc1cccc(O)c1S2
2,205 to 208 °C,CN1CCNC1=NC(=S)Nc1ccccc1
3,209 °C,O=C(O)c1ccc2c(c1)C(C(Cl)Cl)OC(C(Cl)(Cl)Cl)O2 (configuration not stated)
4,95 to 96 °C,COc1cc(CCCO)ccc1OCc1coc(/C=C/c2ccccc2)n1
5,210 to 215 °C,O=C(NC(=O)c1c(F)cccc1Cl)Nc1ccc(Cl)cn1
6,154 °C,Oc1ccc([C@H]2CC[C@H](CCC3OCCO3)CC2)cc1
7,125 to 127 °C,CC(=O)Nc1ccc(OCCCCl)cc1
8,79 to 80 °C,COc1ccc(CN([C@@H](CO)c2ccccc2)S(=O)(=O)c2ccc(Cl)cc2)cc1C(=O)O
9,144 to 145 °C,CC(Oc1ncn(-c2ccc(Br)cc2)n1)C(=O)N1CCCC1 (configuration not stated)
10,82 to 83 °C,CCOC(=O)c1cc2cccc(OCc3ccccc3)c2[nH]1
11,169 to 172 °C,CS(=O)(=O)Nc1cccc(Nc2nc(OCC3CCCCC3)c3nc[nH]c3n2)c1
12,281 to 282 °C,COc1cc(OC)c2c(=O)[nH]c(-c3cccc(-c4ccc(S(C)=O)cc4)n3)nc2c1 (configuration not stated)
13,175 to 177 °C,CCOC(=O)c1cn(CC)c2c(F)c(C(=O)C=CN(C)C)c(F)cc2c1=O
14,112 to 117 °C,CCCc1c(CSc2nccc(OCC(=O)OCC)n2)ccc(C(C)=O)c1O
15,188 to 191 °C,CCC(c1cnc2c(C)c(NC(=O)c3ccc(-c4ccc(F)cc4)cc3)ccc2c1)N1CCCC1 (configuration not stated)
16,145 to 146 °C,O=C(O)C1=Cc2cc(F)c(N3CCC4(C3)OCCCO4)nc2N(c2ccc(F)cc2F)C1
17,128 to 130 °C,Cc1c(Br)c2cnnc(OCc3ccc(F)cc3)c2n1Cc1ccccc1
18,99.5 °C,CC(=O)OCC(=O)C1(OC(C)=O)CCC2C3CCC4=CC(=O)C=CC4(C)C3C(O)CC21C (configuration not stated)
19,170 to 176 °C,CC1=CC(C)(C)N2C(=O)C(=O)c3cccc1c32
20,205 to 215 °C,CC1(NC(=O)C(F)(F)F)CN(c2c(F)cc3c(=O)c(C(=O)O)cn(CCF)c3c2F)C1
21,148 to 150 °C,CCOc1ccc(C2=NN(C3CCN(C(C)=O)CC3)C(=O)[C@@H]3CC=CC[C@H]23)cc1OCC
22,185 to 186 °C,COC(=O)c1cc(CCCCc2c(N)nc(N)nc2O)cs1
23,180 °C,c1ccc2cc(Cn3c(-c4ccc5c(c4)OCO5)nc4ccccc43)ccc2c1
24,127 to 132 °C,CCC(=O)N(C(=O)CC)c1c(I)cc(Br)cc1S(=O)(=O)Cl

row,melting point,Compound
1,126 °C,O=C(Nc1ccccc1C(F)(F)F)c1ccc([N+](=O)[O-])cc1
2,65 to 67 °C,C=CCC1(SC(C)=O)C(C)(C)c2ccccc2C1(C)C
3,170 °C,CC(=O)NCC1CN(c2ccc(-c3cccc(CN)c3)c(F)c2)C(=O)O1 (configuration not stated)
4,189 to 190 °C,Cc1noc(NC(=O)N2CCN(c3nccc(-c4c(F)cccc4F)n3)CC2)c1C
5,147 to 149 °C,CN(C)S(=O)(=O)Nc1cc(C(=O)c2ccccc2)ccc1N
6,> 270 °C,CC(C)(C)[Si](C)(C)Oc1ccc2cc3c(cc2c1)C(=O)c1cc2cc(O[Si](C)(C)C(C)(C)C)ccc2cc1C3=O
7,92 °C,FC(F)(F)c1cccc(Oc2ccnc(-c3ccc(Cl)cc3)n2)c1
8,95 to 96 °C,COc1c(CC#N)c2c(c3c1OC(C)(C)C3)C(c1ccccc1)=NC(C)(C)C2
9,210 °C,NS(=O)(=O)c1cccc(-c2cc(-c3nc(-c4ccc(C(F)(F)F)cc4F)cc(C(F)(F)F)n3)ccn2)c1
10,146 to 147 °C,CC(C)(C)c1ccc(CC(=O)CCCC2CCCCC2)cc1NC(=O)CC1c2ccccc2Oc2ccccc21
11,229 to 230 °C,COc1ccc(C2=NN(c3ccc(NS(=O)(=O)c4ccc(C)cc4)cc3)C(=O)[C@H]3CC=CC[C@@H]23)cc1OC (relative stereo)
12,123 to 125 °C,Cc1cc(-c2cc(C(F)(F)F)nn2-c2ccc(S(C)(=O)=O)c(F)c2)ccc1-c1ccco1
13,74 to 76 °C,O=C(c1cccs1)C1(c2ccc(Cl)cc2)CCC1
14,98 to 100 °C,COC(=O)CCc1cc2cc(Cl)ccc2n1S(=O)(=O)c1cccc(C(F)(F)F)c1
15,> 260 °C,Nc1nc(O)c2c(n1)NCC(CCc1c[nH]c(C(=O)O)c1)C2 (configuration not stated)
16,228 to 230 °C,COc1ccccc1N1CCN(CCn2c(=O)[nH]c3sc(Cl)cc3c2=O)CC1
17,226 to 228 °C,CC(=O)Nc1ccc(OCC2CCN(c3ccncc3)CC2)cc1
18,51 to 53 °C,c1ccc(-c2csc(-c3cccs3)n2)cc1
19,133 to 135 °C,CCOC(=O)Cc1c(C)n(Cc2ccc(Cl)cc2)c2cccc(OCc3csc(-c4ccc(Cl)cc4)n3)c12
20,147 to 149 °C,CCc1cn(S(=O)(=O)c2ccc(C)cc2)c2cc(C(=O)Nc3c(Cl)cncc3Cl)ccc12
21,88 °C,CCOC(=O)C(N=C(c1ccccc1)c1cc(Cl)ccc1NC)C(=O)OCC
22,144 to 148 °C,COc1cc(OC2CCN(c3c(O)c(=O)c3=O)CC2)ccc1CC(=O)N1CCN(c2ccccc2C)CC1C(N)=O (configuration not stated)
23,222 to 223 °C,CC1(c2ccc(O)cc2)C(=O)Nc2cc(Cl)cc(Cl)c2C1=O (configuration not stated)
24,130 to 131 °C,Cc1oc(-c2ccccc2)nc1COc1ccc(COc2nn(Cc3ccccc3)cc2CCC(=O)O)cn1

row,melting point,Compound
1,99 to 100 °C,OCCC12CC(c3ccccc31)c1ccccc12
2,189 to 191 °C,CN(C)c1ccnc(CSc2c[nH]c3ccccc23)c1
3,136 °C,Cc1cc(COc2c(Cl)cc(CCl)cc2Cl)oc(=O)c1
4,327 to 329 °C,Cc1cccc2oc(Nc3ccc(C(=O)O)cc3)nc12
5,188 to 192 °C,COc1ccc2[nH]c(SCc3nccc(N4CCOCC4)n3)nc2c1
6,49 to 51 °C,NC(=O)c1nnn(Cc2ccccc2F)c1C(N)=O
7,195 to 196 °C,FC(F)(F)c1cccc2nc3c4ccccc4c4ccccc4c3nc12
8,225 to 257 °C,O=C(O)C1CCCc2c1ccc1c2OCO1 (configuration not stated)
9,230 °C,COc1cc(N)c(Cl)cc1C(=O)NCCN1CCC(n2c(=O)[nH]c3ccccc32)CC1
10,134 to 135 °C,CCOC(Nc1ccccc1)(OCC)C1(Cl)C=C(C)N=C(C(=O)c2ccc(Cl)cc2)C1 (configuration not stated)
11,200 to 202 °C,O=C(O)CCNC(=O)c1ccccc1NC(=O)c1ccccc1O
12,225 to 228 °C,OCCCNc1nnc(NCCCO)c2cc3ccccc3cc12
13,114 to 116 °C,O=C(Cc1ccc(C(F)(F)F)cn1)c1ccc(Cl)cc1
14,150 to 152 °C,O=C(O)COc1ccc(SCc2ccccc2OCc2ccc(C(F)(F)F)cc2)c2c1CCC2
15,32 to 34 °C,CCOC=Nc1c(C(=O)OCC)cnn1C
16,125 to 127 °C,CCC(=O)OC[C@H]1O[C@@H]2[C@@H](Sc3ccc(Cl)cc3N2CCN(CC)CC)[C@@H](OC(=O)CC)[C@@H]1OC(=O)CC
17,102 to 106 °C,Cc1ncsc1C(=O)Nc1ccc(-n2nc(C3CC3)cc2C2CC2)c(F)c1
18,143 to 145 °C,COc1ccc(C=C2c3ccccc3C(=NOCC(=O)NCC(C)(C)SN=O)c3ccccc32)cc1O
19,233 to 235 °C,CC(=O)NC1CCc2c(C(=O)O)[nH]c(C(=O)O)c2C1 (configuration not stated)
20,35 to 37 °C,O=C(c1ccccc1)c1cccnc1Cl
21,212 to 213 °C,O=C1C(=C2CC=Cc3ccccc32)CCCC1=C1CC=Cc2ccccc21
22,93 to 94 °C,C=CCCC(=O)Nc1ccccc1

row,Compound,melting point
1,CN1C(=O)[C@H](NC(=O)/C=C/c2ccc(I)cc2)N=C(c2ccccc2)c2ccccc21,137 to 140 °C
2,CS(=O)(=O)Nc1ccc2c(c1)CC(=O)N2CCN1CCN(Cc2ccccc2)CC1,196 to 198 °C
3,Cc1nnc(CNC(=O)CCl)n1-c1ccc(Cl)cc1C(=O)c1ccccc1,140 to 141 °C

# — a melting point compilation (Tetko et al.; mined from patent text by program, amines drawn as free bases though some values may be those of a salt)
